Results as given in patent US20240358693A1, “METHODS OF TREATING PAIN” (Aisa Pharma, Inc., priority 2023, published 2024).

Test system: participants with SSc-RP
Experiment: Average duration of weekly RP attacks (minutes)
Type: in vivo, human
Excerpt: The absolute change in average duration of weekly RP attacks from baseline to the end of each dosing period was and will be a secondary outcome variable. The sponsor-developed participant-informed diary was and will be used to record data. Average duration of weekly RP attacks is defined as the total duration of RP attacks divided by total number of RP attacks within the last 7 days of each dosing period. Total duration of RP attacks during the last 7 days of screening period divided by the total number of RP attacks will be used as baseline for the analysis of all periods. The variable will be calculated similar to frequency data as before.

[1] = Cilnidipine 10 mg, n=1, Excluding Outliers, ITT Part A
[2] = Cilnidipine 10 mg, n=1, ITT Part A
[3] = Cilnidipine 10 mg, Baseline RCS subgroup 1 (unnamed), ITT Part A
[4] = Cilnidipine 10 mg, Excluding Outliers, Baseline RCS subgroup 1 (unnamed), ITT Part A
[5] = Cilnidipine 10 mg, Excluding Outliers, ITT Population - Part A
[6] = Cilnidipine 10 mg, Excluding Outliers, by Baseline RCS, subgroup 1, ITT Population - Part A
[7] = Cilnidipine 10 mg, by Baseline RCS, subgroup 1, ITT Population - Part A
[8] = Cilnidipine 20 mg, n=2, Excluding Outliers, ITT Part A
[9] = Cilnidipine 20 mg, n=2, ITT Part A
[10] = Cilnidipine 20 mg, Baseline RCS subgroup 1 (unnamed), ITT Part A
[11] = Cilnidipine 20 mg, Excluding Outliers, Baseline RCS subgroup 1 (unnamed), ITT Part A

COCCOC(=O)C1=C(C)NC(C)=C(C(=O)OC/C=C/c2ccccc2)C1c1cccc([N+](=O)[O-])c1 (stereo not shown) [Cilnidipine, cilnidipine]
−31.05%: Average Duration of Weekly Symptomatic RP Attacks, Percent Change from Baseline, Mean [8] | Average Duration of Weekly Symptomatic RP Attacks, Percent Change from Baseline, Median [8] | Average Duration of Weekly Symptomatic RP Attacks, Percent Change from Baseline, Mean [9] | Average Duration of Weekly Symptomatic RP Attacks, Percent Change from Baseline, Median [9] | Average Duration of Weekly Symptomatic RP Attacks, Percent Change from Baseline, Mean [10] | Average Duration of Weekly Symptomatic RP Attacks, Percent Change from Baseline, Median [10] | Average Duration of Weekly Symptomatic RP Attacks, Percent Change from Baseline, Mean [11] | Average Duration of Weekly Symptomatic RP Attacks, Percent Change from Baseline, Median [11]
-8.48 min: Average Duration of Weekly RP Attacks (All Attacks) Change from Baseline, Mean [5] | Average Duration of Weekly RP Attacks (All Attacks) Change from Baseline, Median [5] | Average Duration of Weekly RP Attacks (All Attacks) Change from Baseline, Mean [6] | Average Duration of Weekly RP Attacks (All Attacks) Change from Baseline, Median [6] | Average Duration of Weekly RP Attacks (All Attacks) Change from Baseline, Mean (Cilnidipine 10 mg, ITT Part A) | Average Duration of Weekly RP Attacks (All Attacks) Change from Baseline, Median (Cilnidipine 10 mg, ITT Part A) | Average Duration of Weekly RP Attacks (All Attacks) Change from Baseline, Mean [7] | Average Duration of Weekly RP Attacks (All Attacks) Change from Baseline, Median [7]
−21.20%: Average Duration of Weekly RP Attacks (All Attacks) Percent Change from Baseline, Mean [5] | Average Duration of Weekly RP Attacks (All Attacks) Percent Change from Baseline, Median [5] | Average Duration of Weekly RP Attacks (All Attacks) Percent Change from Baseline, Mean [6] | Average Duration of Weekly RP Attacks (All Attacks) Percent Change from Baseline, Median [6] | Average Duration of Weekly RP Attacks (All Attacks) Percent Change from Baseline, Mean (Cilnidipine 10 mg, ITT Part A) | Average Duration of Weekly RP Attacks (All Attacks) Percent Change from Baseline, Median (Cilnidipine 10 mg, ITT Part A) | Average Duration of Weekly RP Attacks (All Attacks) Percent Change from Baseline, Mean [7] | Average Duration of Weekly RP Attacks (All Attacks) Percent Change from Baseline, Median [7]
-3.13 min: Average Duration of Weekly Symptomatic RP Attacks, Change from Baseline, Mean [8] | Average Duration of Weekly Symptomatic RP Attacks, Change from Baseline, Median [8] | Average Duration of Weekly Symptomatic RP Attacks, Change from Baseline, Mean [9] | Average Duration of Weekly Symptomatic RP Attacks, Change from Baseline, Median [9] | Average Duration of Weekly Symptomatic RP Attacks, Change from Baseline, Mean [10] | Average Duration of Weekly Symptomatic RP Attacks, Change from Baseline, Median [10] | Average Duration of Weekly Symptomatic RP Attacks, Change from Baseline, Mean [11] | Average Duration of Weekly Symptomatic RP Attacks, Change from Baseline, Median [11]
-16.74 min: Average Duration of Weekly Symptomatic RP Attacks, Change from Baseline, Mean [1] | Average Duration of Weekly Symptomatic RP Attacks, Change from Baseline, Median [1] | Average Duration of Weekly Symptomatic RP Attacks, Change from Baseline, Mean [2] | Average Duration of Weekly Symptomatic RP Attacks, Change from Baseline, Median [2] | Average Duration of Weekly Symptomatic RP Attacks, Change from Baseline, Mean [3] | Average Duration of Weekly Symptomatic RP Attacks, Change from Baseline, Median [3] | Average Duration of Weekly Symptomatic RP Attacks, Change from Baseline, Mean [4] | Average Duration of Weekly Symptomatic RP Attacks, Change from Baseline, Median [4]
-1.09 min: Average Duration of Weekly RP Attacks (All Attacks) Change from Baseline, Mean (Cilnidipine 20 mg, Excluding Outliers, ITT Population - Part A)
16.73 min: Average Duration of Weekly Symptomatic RP Attacks, Mean [8] | Average Duration of Weekly Symptomatic RP Attacks, Median [8] | Average Duration of Weekly Symptomatic RP Attacks, Mean [9] | Average Duration of Weekly Symptomatic RP Attacks, Median [9] | Average Duration of Weekly Symptomatic RP Attacks, Mean [10] | Average Duration of Weekly Symptomatic RP Attacks, Median [10] | Average Duration of Weekly Symptomatic RP Attacks, Mean [11] | Average Duration of Weekly Symptomatic RP Attacks, Median [11]
−34.60%: Average Duration of Weekly Symptomatic RP Attacks, Percent Change from Baseline, Mean [1] | Average Duration of Weekly Symptomatic RP Attacks, Percent Change from Baseline, Median [1] | Average Duration of Weekly Symptomatic RP Attacks, Percent Change from Baseline, Mean [2] | Average Duration of Weekly Symptomatic RP Attacks, Percent Change from Baseline, Median [2] | Average Duration of Weekly Symptomatic RP Attacks, Percent Change from Baseline, Mean [3] | Average Duration of Weekly Symptomatic RP Attacks, Percent Change from Baseline, Median [3] | Average Duration of Weekly Symptomatic RP Attacks, Percent Change from Baseline, Mean [4] | Average Duration of Weekly Symptomatic RP Attacks, Percent Change from Baseline, Median [4]
31.52 min: Average Duration of Weekly RP Attacks (All Attacks), Mean [5] | Average Duration of Weekly RP Attacks (All Attacks), Median [5] | Average Duration of Weekly RP Attacks (All Attacks), Mean [6] | Average Duration of Weekly RP Attacks (All Attacks), Median [6] | Average Duration of Weekly RP Attacks (All Attacks), Mean (Cilnidipine 10 mg, ITT Part A) | Average Duration of Weekly RP Attacks (All Attacks), Median (Cilnidipine 10 mg, ITT Part A) | Average Duration of Weekly RP Attacks (All Attacks), Mean [7] | Average Duration of Weekly RP Attacks (All Attacks), Median [7]
31.64 min: Average Duration of Weekly Symptomatic RP Attacks, Mean [1] | Average Duration of Weekly Symptomatic RP Attacks, Median [1] | Average Duration of Weekly Symptomatic RP Attacks, Mean [2] | Average Duration of Weekly Symptomatic RP Attacks, Median [2] | Average Duration of Weekly Symptomatic RP Attacks, Mean [3] | Average Duration of Weekly Symptomatic RP Attacks, Median [3] | Average Duration of Weekly Symptomatic RP Attacks, Mean [4] | Average Duration of Weekly Symptomatic RP Attacks, Median [4]
